Results taken from ChEMBL document CHEMBL1155770, “New guinea pig model of Cryptococcal meningitis” (2007).
Values after ≈ are worked out from the molar mass of the structure shown. Active and inactive are the calls of the source. The rule behind the calls is not given here.

Experiments:
Cryptococcus neoformans [1] = assay: Antimicrobial activity against 9 x 10^6 CFU Cryptococcus neoformans USC1597 isolate intracranially infected in Hartley guinea pig assessed as kidney […] count per gram at 5 mg/kg, po BID administered 48 hrs postinfection for 13 days; assay type: functional
Cryptococcus neoformans [2] = assay: Antimicrobial activity against 10^7 CFU Cryptococcus neoformans USC1597 isolate intracranially infected in Hartley guinea pig assessed as decrease in cerebrospinal fluid […] count at 20 mg/kg, po BID administered 48 hrs postinfection for 13 days; assay type: functional
Cryptococcus neoformans [3] = assay: Antimicrobial activity against 10^7 CFU Cryptococcus neoformans USC1597 isolate intracranially infected in Hartley guinea pig assessed as decrease in brain […] count at 10 mg/kg, po BID administered 48 hrs postinfection for 13 days; assay type: functional
Cryptococcus neoformans [4] = assay: Antimicrobial activity against 9 x 10^6 CFU Cryptococcus neoformans USC1597 isolate intracranially infected in Hartley guinea pig assessed as brain […] count per gram at 5 mg/kg, po BID administered 48 hrs postinfection for 13 days; assay type: functional
Cryptococcus neoformans [5] = assay: Antimicrobial activity against 10^7 CFU Cryptococcus neoformans USC1597 isolate intracranially infected in Hartley guinea pig assessed as decrease in brain […] count at 5 mg/kg, po BID administered 48 hrs postinfection for 13 days; assay type: functional
Cryptococcus neoformans [6] = assay: Antimicrobial activity against 9 x 10^6 CFU Cryptococcus neoformans USC1597 isolate intracranially infected in Hartley guinea pig assessed as cerebrospinal fluid […] count per ml at 5 mg/kg, po BID administered 48 hrs postinfection for 13 days; assay type: functional
Cryptococcus neoformans [7] = assay: Antimicrobial activity against 10^7 CFU Cryptococcus neoformans USC1597 isolate intracranially infected in Hartley guinea pig assessed as decrease in cerebrospinal fluid […] count per ml at 10 mg/kg, po BID administered 48 hrs postinfection for 13 days; assay type: functional
Cryptococcus neoformans [8] = assay: Antimicrobial activity against 10^7 CFU Cryptococcus neoformans USC1597 isolate intracranially infected in Hartley guinea pig assessed as decrease in brain […] count at 20 mg/kg, po BID administered 48 hrs postinfection for 13 days; assay type: functional
Cryptococcus neoformans [9] = assay: Antimicrobial activity against Cryptococcus neoformans USC1597 isolate after 72 hrs; assay type: functional
Cryptococcus neoformans [10] = assay: Antimicrobial activity against 10^7 CFU Cryptococcus neoformans USC1597 isolate intracranially infected in Hartley guinea pig assessed as decrease in cerebrospinal fluid […] count at 5 mg/kg, po BID administered 48 hrs postinfection for 13 days; assay type: functional
Cryptococcus neoformans [11] = assay: Antimicrobial activity against 9 x 10^6 CFU Cryptococcus neoformans USC1597 isolate intracranially infected in Hartley guinea pig assessed as kidney […] count per gram at 10 mg/kg, po BID administered 48 hrs postinfection for 13 days; assay type: functional
Cryptococcus neoformans [12] = assay: Antimicrobial activity against 10^7 CFU Cryptococcus neoformans USC1597 isolate intracranially infected in Hartley guinea pig assessed as decrease in kidney […] count at 10 mg/kg, po BID administered 48 hrs postinfection for 13 days; assay type: functional, organism-based; parameters: dose 10 mg/kg; conditions: […]
Cryptococcus neoformans [13] = assay: Antimicrobial activity against 9 x 10^6 CFU Cryptococcus neoformans USC1597 isolate intracranially infected in Hartley guinea pig assessed as brain […] count per gram at 10 mg/kg, po BID administered 48 hrs postinfection for 13 days; assay type: functional
Cryptococcus neoformans [14] = assay: Antimicrobial activity against 9 x 10^6 CFU Cryptococcus neoformans USC1597 isolate intracranially infected in Hartley guinea pig assessed as cerebrospinal fluid […] count per ml at 10 mg/kg, po BID administered 48 hrs postinfection for 13 days; assay type: functional

Row | SMILES | log10cfu (Cryptococcus neoformans [1]) | log10cfu (Cryptococcus neoformans [2]) | log10cfu (Cryptococcus neoformans [3]) | log10cfu (Cryptococcus neoformans [4]) | log10cfu (Cryptococcus neoformans [5]) | log10cfu (Cryptococcus neoformans [6]) | log10cfu (Cryptococcus neoformans [7]) | log10cfu (Cryptococcus neoformans [8]) | MIC (Cryptococcus neoformans [9]) [µg/mL] | log10cfu (Cryptococcus neoformans [10]) | log10cfu (Cryptococcus neoformans [11]) | Activity (Cryptococcus neoformans [12]) | log10cfu (Cryptococcus neoformans [13]) | log10cfu (Cryptococcus neoformans [14])
1 | C[C@@H](c1ncncc1F)[C@](O)(Cn1cncn1)c1ccc(F)cc1F [VORICONAZOLE] | 3.01 | 1 | 1.5 | 5.99 | 1 | 4.11 | 1.6 | 1.5 | 0.006 (≈ 0.0172 µM) | 0.7 | – | – | – | –
2 | C[C@@H]1[C@H](O)[C@@H](C)/C=C/C=C/C=C/C=C/C=C/C=C/C=C/[C@H](O[C@@H]2O[C@H](C)[C@@H](O)[C@H](N)[C@@H]2O)C[C@@H]2O[C@](O)(C[C@@H](O)C[C@@H](O)[C@H](O)CC[C@@H](O)C[C@@H](O)CC(=O)O[C@H]1C)C[C@H](O)[C@H]2C(=O)O [AMPHOTERICIN B] | – | – | – | – | – | – | – | – | 0.25 (≈ 0.271 µM) | – | – | – | – | –
3 | OC(Cn1cncn1)(Cn1cncn1)c1ccc(F)cc1F [FLUCONAZOLE] | – | – | 2 | – | – | – | 1 | – | 1 (≈ 3.27 µM) | – | 2.43 | Active | 5.25 | 3.18
